According to patent US4560684A, “1,4-Benzodiazepine derivatives” (priority 1982, dated 1985):
Counter-ions that a name gives are not always drawn. Like-named read-outs stand apart in the source and are kept apart here.

Tests used:
[1] = system: tetrabenazine (TBZ) induced ptosis; assay: Antagonism to the tetrabenazine (TBZ) induced ptosis; type: in vivo, DS male mice; conditions: Mus musculus, sc, read-out: Anti-TBZ ptosis (ED50)
Method: (§1) Each compound was used in the form of 0.5 to 1% suspension made by mixing
(§2) with its half volume of arabic gum.
**Antagonism to the tetrabenazine (TBZ) induced ptosis: To several groups
of DS male mice in 4 to 5 weeks age, each group consisting of 5 mice was
subcutaneously administered the test compound. Half an hour later, 50
mg/kg of tetrabenazine was subcutaneously administered. Degree of the
ptosis in 1 hour was scored, and the result was subjected to the rigid
conversion. The ED50 value was obtained from the regression

[2] = system: pentylenetetrazole (PTZ) induced convulsion; assay: Antagonism to the pentylenetetrazole (PTZ) induced convulsion; type: in vivo, ddy male mice; conditions: Mus musculus, read-out: Anti-PTZ convulsion (ED50)
Method: as §1, §2
***Antagonism to the pentylenetetrazole (PTZ) induced convulsion: To
several groups of ddy male mice in 4 to 5 weeks age, each group consistin
of 8 mice was orally administered the test compound. Half an hour later,
125 mg/kg of pentylenetetrazole was subcutaneously administered, and the
number of mice surviving during 2 hours was observed. The ED50 value
was obtained from the survival number according to the probit method.

[3] = DS male mice, subcutaneous, half an hour before tetrabenazine 50 mg/kg s.c., ptosis scored in 1 hour
[4] = ddy male mice, oral, half an hour before pentylenetetrazole 125 mg/kg s.c., survival during 2 hours

Structure (SMILES)	ED50 ([1]; 1 h) [mg/kg]	ED50 ([2]; po, 2 h) [mg/kg]	ED50 [1, 3] [mg/kg]	ED50 [2, 4] [mg/kg]
CN1CCC(N2C(=O)CN=C(c3ccccc3F)c3ccccc32)CC1 [Compound 8, 1-(1-methyl-4-piperidinyl)-1,3-dihydro-5-(2-fluorophenyl)-2H-1,4-benzdiazepin-2-one]	0.205	> 10	–	–
Cc1ccc2c(c1)C(c1ccccc1F)=NCC(=O)N2C1CCN(C)CC1 [Compound 15]	0.839	> 10	–	–
O=C1CN=C(c2ccccc2F)c2cc(Cl)ccc2N1C1CCNCC1 [Compound 23, 7-chloro-1,3-dihydro-5-(2-fluorophenyl)-1-(4-piperidinyl)-2H-1,4-benzodiazepin-2-one]	–	–	0.075	8.52
O=C1CN=C(c2ccccc2)c2ccccc2N1C1CCNCC1 [Compound 26, 1-(4-piperidinyl)-1,3-dihydro-5-phenyl-2H-1,4-benzodiazepin-1-one hydrobromide]	–	–	0.063	> 10
CN(C)CCCN1c2ccccc2CCc2ccccc21 [imipramine, reference compound]	0.799	> 10	–	–
CN1CCC(N2C(=O)CN=C(c3ccccc3F)c3cc(Cl)ccc32)CC1 [Compound 10]	1.3	0.77	–	–
CN1CCC(N2C(=O)CN=C(c3ccccc3)c3ccccc32)CC1 [Compound 6]	0.26	> 20	–	–
